Source: ChEMBL document CHEMBL1125524, “Adenosine A1 antagonists. 2. Structure-activity relationships on diuretic activities and protective effects against acute renal failure” (J Med Chem, 1992)
Several values for one entry are separate records, joined by “and”; a condition that tells them apart may be missing. Equal values may be shown once.

How the values were obtained:
Rattus norvegicus [1] = test: Serum creatinine concentration measured after intraperitoneal administration of 1 mg/kg of compound to rats(vehicle 4.74+/-0.31); format: functional
Rattus norvegicus [2] = test: Serum creatinine concentration measured after intraperitoneal administration of 0.1 mg/kg of compound to rats(vehicle 6.90+/-0.20); format: functional
Rattus norvegicus [3] = test: Effect on urinary excretion potassium and sodium after oral administration of 0.1 mg/kg to rats(potassium and sodium excretion in control rat is 0.180+/-0.017); format: functional, Urine
Rattus norvegicus [4] = test: Effect on urinary excretion potassium and sodium after oral administration of 0.4 mg/kg to rats(potassium and sodium excretion in control rat is 0.191+/-0.020); format: functional, Urine
Rattus norvegicus [5] = test: Effect on urinary excretion potassium and sodium after oral administration of 1.6 mg/kg to rats(potassium and sodium excretion in control rat is 0.174+/-0.013); format: functional, Urine
Rattus norvegicus [6] = test: Urea nitrogen concentration measured after intraperitoneal administration of 1 mg/kg of compound to rats(vehicle 139.8+/-7.8); format: functional
Rattus norvegicus [7] = test: Percent inhibition of serum creatinine by the compound given as ratio of Cr value in treated to vehicle treated ones after intraperitoneal administration of 1 mg/kg of compound to rats(vehicle 4.74+/-0.31); format: functional; conditions: ip
Rattus norvegicus [8] = test: Ratio of urinary excretion value (urinary volume) in treated rats to that in control rats, at a peroral dose of 0.1 mg/Kg; format: functional, Urine
Rattus norvegicus [9] = test: Ratio of urinary excretion value (urinary volume) in treated rats to that in control rats, at a peroral dose of 0.4 mg/Kg; format: functional, Urine
Rattus norvegicus [10] = test: Ratio of urinary excretion value (urinary volume) in treated rats to that in control rats, at a peroral dose of 1.6 mg/Kg; format: functional, Urine
Rattus norvegicus [11] = test: Ratio of sodium ion/potassium ion concentration in treated rats to that in control rats, at a peroral dose of 0.1 mg/Kg; format: functional
Rattus norvegicus [12] = test: Ratio of sodium ion/potassium ion concentration in treated rats to that in control rats, at a peroral dose of 0.4 mg/Kg; format: functional
Rattus norvegicus [13] = test: Ratio of sodium ion/potassium ion concentration in treated rats to that in control rats, at a peroral dose of 1.6 mg/Kg; format: functional
Rattus norvegicus [14] = test: Ratio of urinary excretion value (Na+ concentration) in treated rats to that in control rats, at a peroral dose of 0.1 mg/Kg; format: functional, Urine
Rattus norvegicus [15] = test: Ratio of urinary excretion value (Na+ concentration) in treated rats to that in control rats, at a peroral dose of 0.4 mg/Kg; format: functional, Urine
Rattus norvegicus [16] = test: Ratio of urinary excretion value (Na+ concentration) in treated rats to that in control rats, at a peroral dose of 1.6 mg/Kg; format: functional, Urine
Rattus norvegicus [17] = test: Percent inhibition of serum creatinine by the compound given as ratio of Cr value in treated to vehicle treated ones after intraperitoneal administration of 0.1 mg/kg of compound to rats(vehicle 6.90+/-0.20); format: functional; conditions: ip
Rattus norvegicus [18] = test: Oral diuretic activity was measured after oral administration of 0.4 mg/kg to rats(control volume is 1.15+/-0.17); format: functional, Urine
Rattus norvegicus [19] = test: Oral diuretic activity was measured after oral administration of 1.6 mg/kg to rats(control volume is 0.86+/-0.09); format: functional, Urine
Rattus norvegicus [20] = test: Urea nitrogen concentration measured after intraperitoneal administration of 0.1 mg/kg of compound to rats(vehicle 171.3+/-6.4); format: functional
Rattus norvegicus [21] = test: Oral diuretic activity was measured after oral administration of 0.1 mg/kg to rats(control volume is 1.05+/-0.11); format: functional, Urine
Rattus norvegicus [22] = test: Percent inhibition of Urea nitrogen by the compound given as ratio of UN value in treated to vehicle treated ones after intraperitoneal administration of 1 mg/kg of compound to rats(vehicle 139.8+/-7.8); format: functional; conditions: ip
Rattus norvegicus [23] = test: Percent inhibition of Urea nitrogen by the compound given as ratio of UN value in treated to vehicle treated ones after intraperitoneal administration of 0.1 mg/kg of compound to rats(vehicle 171.3+/-6.4); format: functional; conditions: ip
Adenosine receptor A1 = target: T1, Adenosine receptor A1 (Cavia porcellus, UniProt P47745)
T1 sequence (P47745 whole entry): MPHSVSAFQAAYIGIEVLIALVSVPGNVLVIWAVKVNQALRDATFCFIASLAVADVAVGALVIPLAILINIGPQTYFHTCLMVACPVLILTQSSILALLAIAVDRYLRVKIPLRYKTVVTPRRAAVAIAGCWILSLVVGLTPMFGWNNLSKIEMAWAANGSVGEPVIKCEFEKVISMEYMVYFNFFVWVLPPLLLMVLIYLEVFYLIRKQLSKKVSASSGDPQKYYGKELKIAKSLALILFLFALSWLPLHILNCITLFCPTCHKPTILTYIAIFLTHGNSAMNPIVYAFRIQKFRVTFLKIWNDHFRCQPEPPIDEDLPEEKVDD
Description: Binding affinity against adenosine A1 receptor in guinea pig forebrain membranes using N6-[3H]cyclohexyladenosine as radioligand

Adenosine A2 receptor = Adenosine A2 receptor (Rattus norvegicus, UniProt P29276+P30543)
Rattus norvegicus [24] = test: Serum creatinine concentration measured after intraperitoneal administration of 1 mg/kg of compound to rats(vehicle 4.5+/-0.24); format: functional
Rattus norvegicus [25] = test: Serum creatinine concentration measured after intraperitoneal administration of 0.1 mg/kg of compound to rats(vehicle 5.43+/-0.11); format: functional
Rattus norvegicus [26] = test: Effect on urinary excretion potassium and sodium after oral administration of 0.01 mg/kg to rats(potassium and sodium excretion in control rat is 0.180+/-0.017); format: functional, Urine
Rattus norvegicus [27] = test: Effect on urinary excretion potassium and sodium after oral administration of 0.1 mg/kg to rats(potassium and sodium excretion in control rat is 0.147+/-0.015); format: functional, Urine
Rattus norvegicus [28] = test: Effect on urinary excretion potassium and sodium after oral administration of 0.4 mg/kg to rats(potassium and sodium excretion in control rat is 0.0.169+/-0.012); format: functional, Urine
Rattus norvegicus [29] = test: Urea nitrogen concentration measured after intraperitoneal administration of 1 mg/kg of compound to rats(vehicle 151.5+/-7.4); format: functional
Rattus norvegicus [30] = test: Ratio of sodium ion/potassium ion concentration in treated rats to that in control rats, at a peroral dose of 0.01 mg/Kg; format: functional
Rattus norvegicus [31] = test: Ratio of urinary excretion value (Na+ concentration) in treated rats to that in control rats, at a peroral dose of 0.01 mg/Kg; format: functional, Urine
Rattus norvegicus [32] = test: Ratio of urinary excretion value (urinary volume) in treated rats to that in control rats, at a peroral dose of 0.01 mg/Kg; format: functional, Urine
Rattus norvegicus [33] = organism: Rattus norvegicus; test: Percent inhibition of serum creatinine by the compound given as ratio of Cr value in treated to vehicle treated ones; format: functional
Rattus norvegicus [34] = test: Effect on urinary excretion potassium and sodium after oral administration of 1.6 mg/kg to rats(potassium and sodium excretion in control rat is 0.189+/-0.005); format: functional, Urine
Rattus norvegicus [35] = test: Oral diuretic activity was measured after oral administration of 0.4 mg/kg to rats(control volume is 0.97+/-0.05); format: functional, Urine
Rattus norvegicus [36] = test: Oral diuretic activity was measured after oral administration of 0.01 mg/kg to rats(control volume is 1.05+/-0.11); format: functional, Urine
Rattus norvegicus [37] = test: Oral diuretic activity was measured after oral administration of 0.1 mg/kg to rats(control volume is 0.96+/-0.09); format: functional, Urine
Rattus norvegicus [38] = test: Urea nitrogen concentration measured after intraperitoneal administration of 0.1 mg/kg of compound to rats(vehicle 141.3+/-8.3); format: functional
Rattus norvegicus [39] = test: Oral diuretic activity was measured after oral administration of 1.6 mg/kg to rats(control volume is 1.12+/-0.05); format: functional, Urine

In the case of `CCn1c(=O)c2nc(C3CCCC3)[nH]c2n(CC)c1=O`, the Cr (Rattus norvegicus [1]) is reported as 2.28 mg/dL, the Cr (Rattus norvegicus [2]) is reported as 5.48 mg/dL and the Na (Rattus norvegicus [3]) is reported as 0.206 m equiv 6hr-1 100g-1. For the same compound, the Na (Rattus norvegicus [4]) was 0.342 m equiv 6hr-1 100g-1, the Na (Rattus norvegicus [5]) was 0.24 m equiv 6hr-1 100g-1 and the UN (Rattus norvegicus [6]) was 65.5 mg/dL. The inhibition in vivo at 1 mg/kg (Rattus norvegicus [7]) was 52%, the T/C (Rattus norvegicus [8]) was 1.03 and the T/C (Rattus norvegicus [9]) was 1.64. The T/C (Rattus norvegicus [10]) was 2.43, the “Na+/K+” value (Rattus norvegicus [11]) was 1 and the “Na+/K+” value (Rattus norvegicus [12]) was 1.54. For the same compound, the “Na+/K+” value (Rattus norvegicus [13]) was 1.56, the T/C (Rattus norvegicus [14]) was 1.15 and the T/C (Rattus norvegicus [15]) was 1.79. It also gave a T/C (Rattus norvegicus [16]) of 2.09, an inhibition in vivo at 0.1 mg/kg (Rattus norvegicus [17]) of 21% and a Urine volume (Rattus norvegicus [18]) of 1.89 ml 6hr-1 100g-1. The Urine volume (Rattus norvegicus [19]) was 2.09 ml 6hr-1 100g-1, the UN (Rattus norvegicus [20]) was 143.9 mg/dL and the Urine volume (Rattus norvegicus [21]) was 1.09 ml 6hr-1 100g-1. It also gave an inhibition in vivo at 1 mg/kg (Rattus norvegicus [22]) of 53%, an inhibition in vivo at 0.1 mg/kg (Rattus norvegicus [23]) of 16% and a Ki (Adenosine receptor A1) of 0.019 µM. It also gave a Ki (Adenosine A2 receptor) of 0.44 µM.
`CCCCn1c(=O)c2nc(C34CC5CC(CC3C5)C4)[nH]c2n(CCCC)c1=O` showed a Cr (Rattus norvegicus [24]) of 2.82 mg/dL, a Cr (Rattus norvegicus [25]) of 2.63 mg/dL and a Na (Rattus norvegicus [26]) of 0.176 m equiv 6hr-1 100g-1. The Na (Rattus norvegicus [27]) was 0.279 m equiv 6hr-1 100g-1, the Na (Rattus norvegicus [28]) was 0.412 m equiv 6hr-1 100g-1 and the T/C (Rattus norvegicus [8]) was 1.83. For the same compound, the T/C (Rattus norvegicus [9]) was 2.58, the T/C (Rattus norvegicus [10]) was 2.25 and the UN (Rattus norvegicus [29]) was 62.1 mg/dL. For the same compound, the “Na+/K+” value (Rattus norvegicus [30]) was 1.05, the “Na+/K+” value (Rattus norvegicus [11]) was 1.58 and the “Na+/K+” value (Rattus norvegicus [12]) was 1.89. The “Na+/K+” value (Rattus norvegicus [13]) was 1.61, the T/C (Rattus norvegicus [31]) was 0.98 and the T/C (Rattus norvegicus [14]) was 1.89. For the same compound, the T/C (Rattus norvegicus [15]) was 2.45, the T/C (Rattus norvegicus [16]) was 2.26 and the T/C (Rattus norvegicus [32]) was 0.74. For the same compound, the Inhibition (Rattus norvegicus [33]) was 45% and 19%, the Na (Rattus norvegicus [34]) was 0.426 m equiv 6hr-1 100g-1 and the Urine volume (Rattus norvegicus [35]) was 2.5 ml 6hr-1 100g-1. The Urine volume (Rattus norvegicus [36]) was 0.78 ml 6hr-1 100g-1, the Urine volume (Rattus norvegicus [37]) was 1.76 ml 6hr-1 100g-1 and the UN (Rattus norvegicus [38]) was 119.4 mg/dL. For the same compound, the Urine volume (Rattus norvegicus [39]) was 2.52 ml 6hr-1 100g-1 and the Ki (Adenosine A2 receptor) was 1.1 µM.
